Test results reported in patent US8304446B2, “Compounds” (Glaxo Group Limited, priority 2009, dated 2012).
Where a name gives a salt, the structure may show the parent alone.

These compounds were tested against T1, CCR4 (Homo sapiens, UniProt P51679) (assay: [35S]-GTPγS SPA binding assay for CCR4 antagonist activity). Conditions: CCR4 expressing CHO membranes; human MDC at EC80; [35S]-GTPγS competition.
T1 construct: expressed in transfected cells; host or cells: CHO cell membranes
T1 sequence (P51679 1-360): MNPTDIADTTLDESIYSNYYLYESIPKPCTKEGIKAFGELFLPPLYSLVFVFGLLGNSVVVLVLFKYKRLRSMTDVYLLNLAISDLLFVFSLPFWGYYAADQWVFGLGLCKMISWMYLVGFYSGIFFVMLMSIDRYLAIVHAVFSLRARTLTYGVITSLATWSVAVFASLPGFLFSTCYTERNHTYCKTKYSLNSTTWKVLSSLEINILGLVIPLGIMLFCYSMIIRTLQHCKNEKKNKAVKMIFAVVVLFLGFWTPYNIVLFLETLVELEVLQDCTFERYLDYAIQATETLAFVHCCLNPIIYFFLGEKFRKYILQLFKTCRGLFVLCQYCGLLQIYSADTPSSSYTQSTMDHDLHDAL
Assay type: biochemical
Procedure: [35S]-GTPγS SPA Binding Assays for CCR4 Antagonist Activity
Antagonist potency was determined by a radioligand [35S]-GTPγS competition assay. Briefly, CCR4 expressing CHO membranes were homogenised by passing through a 23G needle. These membranes were then adhered to WGA-coated Leadseeker SPA beads in assay buffer (20 mM HEPES, 10 mM MgCl2, 100 mM NaCl, 0.05% BSA, 40 ug/ml Saponin and pH adjusted to 7.4 using KOH 5M) to generate a 3 μg/well final assay concentration (FAC) membrane and 250 μg/well FAC bead, solution.
The bead/membrane/[35S]-GTPγS/Agonist suspension was dispensed into white Greiner polypropylene 384-well plates (45 μl/well), containing 0.5 μl of compound. […] Plates were then read on a Viewlux instrument and luminescence was then plotted as a percentage of the maximum inhibitional response elicited by an IC100 of a standard antagonist.

Structure (SMILES) | IC50
CC(O)c1cccc2c1c(NS(=O)(=O)c1ccc(Cl)s1)nn2Cc1cccc(CNC(=O)C(C)(C)O)c1 (stereo not shown) [Example 151, N-[(3-{[3-{[(5-Chloro-2-thienyl)sulfonyl]amino}-4-(1-hydroxyethyl)-1H-indazol-1-yl]methyl}phenyl)methyl]-2-hydroxy-2-methylpropanamide] | 3.98 to 15.8 nM
COc1cccc2c1c(NS(=O)(=O)c1ccc(Cl)s1)nn2Cc1cccc(CNC(=O)CCCCCCC(=O)O)c1 [Example 144, 8-{[(3-{[3-{[(5-Chloro-2-thienyl)sulfonyl]amino}-4-(methyloxy)-1H-indazol-1-yl]methyl}phenyl)methyl]amino}-8-oxooctanoic acid] | 3.98 to 15.8 nM
COc1cccc2c1c(NS(=O)(=O)c1ccc(Cl)s1)nn2Cc1cccc(CNC(=O)CCCCC(=O)O)c1 [Example 140, 6-{[(3-{[3-{[(5-Chloro-2-thienyl)sulfonyl]amino}-4-(methyloxy)-1H-indazol-1-yl]methyl}phenyl)methyl]amino}-6-oxohexanoic acid] | 3.98 to 15.8 nM
CC(O)c1cccc2c1c(NS(=O)(=O)c1ccc(Cl)s1)nn2Cc1cccc(CNC(=O)[C@@H]2COCCN2)c1 (stereo partly drawn) [Example 153, (3S)—N-[(3-{[3-{[(5-Chloro-2-thienyl)sulfonyl]amino}-4-(1-hydroxyethyl)-1H-indazol-1-yl]methyl}phenyl)methyl]-3-morpholinecarboxamide formate salt] | 3.98 to 15.8 nM
COc1cccc2c1c(NS(=O)(=O)c1ccc(Cl)s1)nn2Cc1cccc(CNC(=O)CCCC(=O)O)c1 [Example 139, 5-{[(3-{[3-{[(5-Chloro-2-thienyl)sulfonyl]amino}-4-(methyloxy)-1H-indazol-1-yl]methyl}phenyl)methyl]amino}-5-oxopentanoic acid] | 3.98 to 15.8 nM
COc1c(F)ccc2c1c(NS(=O)(=O)c1ccc(Cl)s1)nn2Cc1cccc(CNC(C)=O)c1 [Example 134, N-[(3-{[3-{[(5-Chloro-2-thienyl)sulfonyl]amino}-5-fluoro-4-(methyloxy)-1H-indazol-1-yl]methyl}phenyl)methyl]acetamide] | 3.98 to 15.8 nM
COc1cccc2c1c(NS(=O)(=O)c1ccc(Cl)s1)nn2Cc1cccc(CNC(=O)C[C@H](N)C(=O)O)c1 [Example 80, N^4-[(3-{[3-{[(5-Chloro-2-thienyl)sulfonyl]amino}-4-(methyloxy)-1H-indazol-1-yl]methyl}phenyl)methyl]-L-asparagine trifluoroacetate] | 3.98 to 15.8 nM
COc1cccc2c1c(NS(=O)(=O)c1ccc(C)s1)nn2Cc1ccc(CNC(=O)[C@H]2COCCN2)cc1 [Example 120, (3R)—N-({4-[(4-(methyloxy)-3-{[(5-methyl-2-thienyl)sulfonyl]amino}-1H-indazol-1-yl)methyl]phenyl}methyl)-3-morpholinecarboxamide trifluoroacetate] | 100 to 398 nM
CC(O)c1cccc2c1c(NS(=O)(=O)c1ccc(Cl)s1)nn2Cc1cccc(CNC(=O)[C@H]2COCCN2)c1 (stereo partly drawn) [Example 152, (3R)—N-[(3-{[3-{[(5-Chloro-2-thienyl)sulfonyl]amino}-4-(1-hydroxyethyl)-1H-indazol-1-yl]methyl}phenyl)methyl]-3-morpholinecarboxamide formate salt] | 3.98 to 15.8 nM

These compounds were tested on CD4+ CCR4+ T cells (assay: Chemokine stimulated increases in cellular F-actin content). Conditions: Homo sapiens, T-cell, 0.5 h; PBMC from normal volunteers; antagonist 30 min at 37° C. before agonist for 15 sec; F-actin content by flow cytometry; read-out: pA2 (converted).
Assay type: cell-based
Procedure: Chemokine Stimulated Increases in Cellular F-Actin Content
Blood was taken from normal volunteers who had taken no medication within the previous ten days and mixed with 1/9 of the volume of 3.8% tri-sodium citrate solution. Chemokine-induced increases in the F-actin content of CD4+ CCR4+ T cells were measured by a modification of the method of Pilette et al. (Eur. Respir. J; 23: 876-884, 2004). Peripheral blood mononuclear cells (PBMC) were isolated by dextran sedimentation followed by Percoll density gradient centrifugation. The PBMCs were incubated with FITC-conjugated anti-human CD4 and PE-conjugated anti-CCR4 antibodies or appropriate isotype controls for 15 min. The cell suspensions were then centrifuged at 400 g for 10 min and the pellets resuspended in assay buffer (phenol red-free RPMI 1640 medium containing 10 mM HEPES and 0.1% bovine serum albumin) at 10^7/mL. The resulting cell suspension was incubated with antagonist or vehicle (0.1% DMSO) for 30 min at 37° C. before stimulation with the agonist for 15 sec. The assay was terminated by addition of 3% formaldehyde. The fixed cells were washed twice with PBS (centrifuging at 1000 g for 5 min to recover the cells) and incubated at room temperature with Alexa fluor-647 phalloidin (0.075 U/mL) in the presence of lyso-phosphatidylcholine (93.75 μg/ml) for 20 min to stain F-actin. The cells were washed once more with PBS and the relative F-actin content of the cells was measured flow cytometrically. The mean fluorescence intensity of 1000 CD4^+ CCR4^+ cells per sample was determined and expressed as a fraction of the mean intensity of the CD4^+ CCR4^− cells in that sample.

Structure (SMILES) | Kb
CNCCC(=O)NCc1cccc(Cn2nc(NS(=O)(=O)c3ccc(Cl)s3)c3c(OC)cccc32)c1 [Example 29, N^1-[(3-{[3-{[(5-Chloro-2-thienyl)sulfonyl]amino}-4-(methyloxy)-1H-indazol-1-yl]methyl}phenyl)methyl]-N^3-methyl-β-alaninamide trifluoroacetate] | ≤ 126 nM
CNC(C)(C)C(=O)NCc1cccc(Cn2nc(NS(=O)(=O)c3ccc(Cl)s3)c3c(OC)cccc32)c1 [Example 56, N1-[(3-{[3-{[(5-Chloro-2-thienyl)sulfonyl]amino}-4-(methyloxy)-1H-indazol-1-yl]methyl}phenyl)methyl]-N2,2-dimethylalaninamide formate] | ≤ 126 nM
COc1cccc2c1c(NS(=O)(=O)c1ccc(Cl)s1)nn2Cc1cccc(C(=O)NCCN(C)C)c1 [Example 65, 3-{[3-{[(5-Chloro-2-thienyl)sulfonyl]amino}-4-(methyloxy)-1H-indazol-1-yl]methyl}-N-[2-(dimethylamino)ethyl]benzamide] | ≤ 126 nM
COc1cccc2c1c(NS(=O)(=O)c1ccc(Cl)s1)nn2Cc1cccc(CNC(=O)[C@@H](N)Cc2ccccc2)c1 [Example 47, N-[(3-{[3-{[(5-Chloro-2-thienyl)sulfonyl]amino}-4-(methyloxy)-1H-indazol-1-yl]methyl}phenyl)methyl]-L-phenylalaninamide] | ≤ 126 nM
CNC(=O)[C@@H](N)CC(=O)NCc1cccc(Cn2nc(NS(=O)(=O)c3ccc(Cl)s3)c3c(OC)cccc32)c1 [Example 22, N^4-[(3-{[3-{[(5-chloro-2-thienyl)sulfonyl]amino}-4-(methyloxy)-1H-indazol-1-yl]methyl}phenyl)methyl]-N^1-methyl-L-aspartamide trifluoroacetate] | ≤ 126 nM
COc1cc(Cn2nc(NS(=O)(=O)c3ccc(Cl)s3)c3c(OC)cccc32)ccc1OCCN(C)C [Example 76, 5-Chloro-N-[1-{[4-{[2-(dimethylamino)ethyl]oxy}-3-(methyloxy)phenyl]methyl}-4-(methyloxy)-1H-indazol-3-yl]-2-thiophenesulfonamide] | ≤ 126 nM
COc1cccc2c1c(NS(=O)(=O)c1ccc(Cl)s1)nn2Cc1cccc(CNC(=O)C2CCCO2)c1 (stereo not shown) [Example 89, N-[(3-{[3-{[(5-Chloro-2-thienyl)sulfonyl]amino}-4-(methyloxy)-1H-indazol-1-yl]methyl}phenyl)methyl]tetrahydro-2-furancarboxamide] | ≤ 126 nM
COc1cccc2c1c(NS(=O)(=O)c1ccc(Cl)s1)nn2Cc1ccc(OCCN(C)C)cc1 [Example 75, 5-Chloro-N-[1-[(4-{[2-(dimethylamino)ethyl]oxy}phenyl)methyl]-4-(methyloxy)-1H-indazol-3-yl]-2-thiophenesulfonamide] | ≤ 126 nM
COc1cccc2c1c(NS(=O)(=O)c1ccc(Cl)s1)nn2Cc1cccc(CNC(N)=O)c1 [Example 59, N-[1-[(3-{[(Aminocarbonyl)amino]methyl}phenyl)methyl]-4-(methyloxy)-1H-indazol-3-yl]-5-chloro-2-thiophenesulfonamide] | ≤ 126 nM
COCCN(C)CC(=O)NCc1cccc(Cn2nc(NS(=O)(=O)c3ccc(Cl)s3)c3c(OC)cccc32)c1 [Example 36, N^1-[(3-{[3-{[(5-Chloro-2-thienyl)sulfonyl]amino}-4-(methyloxy)-1H-indazol-1-yl]methyl}phenyl)methyl]-N^2-methyl-N^2-[2-(methyloxy)ethyl]glycinamide trifluoroacetate] | ≤ 126 nM
COc1cccc2c1c(NS(=O)(=O)c1ccc(C)s1)nn2Cc1cccc(CNC(=O)[C@H]2COCCN2)c1 [Example 160, (3R)—N-({3-[(4-(Methyloxy)-3-{[(5-methyl-2-thienyl)sulfonyl]amino}-1H-indazol-1-yl)methyl]phenyl}methyl)-3-] | ≤ 126 nM
O=C(NCc1cccc(Cn2nc(NS(=O)(=O)c3ccc(Cl)s3)c3c(O)cccc32)c1)[C@H]1COCCN1 [Example 111, (3R)—N-({3-[(3-{[(5-chloro-2-thienyl)sulfonyl]amino}-4-hydroxy-1H-indazol-1-yl)methyl]phenyl}methyl)-3-morpholinecarboxamide formate salt] | ≤ 126 nM
COc1cccc2c1c(NS(=O)(=O)c1ccc(Cl)s1)nn2Cc1cccc(CNC(=O)[C@@H]2CCCN2C)c1 [Example 39, N-[(3-{[3-{[(5-Chloro-2-thienyl)sulfonyl]amino}-4-(methyloxy)-1H-indazol-1-yl]methyl}phenyl)methyl]-methyl-L-prolinamide trifluoroacetate] | ≤ 126 nM
